How the values were obtained:
[1] = test system: HT-1080 cells expressing IDH1R132C; experiment: 2-HG production inhibitory activity using HT1080 cell; type: cell-based, human; conditions: Homo sapiens, HT-1080; 2-HG production, HT1080 cells; read-out: Test Example 3 IC50
Procedure: Then, 100 μL of growth medium B was added to each well, further 25 μL of a solution of each compound diluted to a predetermined concentration with growth medium B was added to each well, and the cells were incubated at 37° C. for 2 days under 5% CO2. […] Then, 150 μL of ultrapure water was further added to each well, and the mixture was stirred by pipetting and stored at −20° C.
The preserved solutions were thawed at room temperature.

[2] = molecular target: IDH1R132C (Homo sapiens (Human), UniProt O75874, R132C); experiment: Inhibitory activity against IDH1R132C enzyme (NADPH detection, WST-8); type: biochemical; conditions: 10 nM, residual NADPH detected with WST-8, read-out: Test Example 1 IDH1 R132C IC50
Procedure: After transformation of Rosetta 2 (DE3) E. coli, the expression of the protein was induced with IPTG.
While NADPH-derived fluorescence was occasionally monitored, the reaction was terminated by the addition of 5 μL of 0.5 M EDTA before consumption of NADPH. 5 μL of WST-8 reagent (Dojindo Laboratories, #CK04) was further added and mixed therewith. 15 minutes later, the absorbance at 450 nm was measured using a plate reader (PerkinElmer, Inc., EnVision). The observed absorbance value reflects the amount of residual NADPH. From the absorbance data, the enzyme inhibitory activity of each compound at each concentration was calculated and analyzed using medical statistical analysis software GraphPad Prism to calculate an IC50 value.

IDH1R132C, sequence (O75874 whole entry R132C): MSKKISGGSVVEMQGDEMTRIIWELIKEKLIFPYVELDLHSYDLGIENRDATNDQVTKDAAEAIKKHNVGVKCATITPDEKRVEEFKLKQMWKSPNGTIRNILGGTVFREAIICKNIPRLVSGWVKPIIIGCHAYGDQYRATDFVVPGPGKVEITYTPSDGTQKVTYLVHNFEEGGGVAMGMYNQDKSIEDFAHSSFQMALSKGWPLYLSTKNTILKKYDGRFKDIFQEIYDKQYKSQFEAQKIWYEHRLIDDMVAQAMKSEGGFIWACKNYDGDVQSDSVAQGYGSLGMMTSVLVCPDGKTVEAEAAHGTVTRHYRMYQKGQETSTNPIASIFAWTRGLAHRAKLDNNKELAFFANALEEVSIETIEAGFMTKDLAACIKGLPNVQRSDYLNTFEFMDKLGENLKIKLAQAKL

Compound | IC50 [1] [nM] | IC50 [2] [nM]
CCC1(c2onc(-c3c(Cl)cccc3Cl)c2C(=O)n2ccc3c(/C=C/C(=O)O)cccc32)COC1 [Example 5, (2E)-3-(1-{[3-(2,6-Dichlorophenyl)-5-(3-ethyloxetan-3-yl)-1,2-oxazol-4-yl]carbonyl}-1H-indol-4-yl)prop-2-enoic acid] | 42 | –
O=C(O)/C=C/c1cccc2c1ccn2C(=O)c1c(-c2c(Cl)cc(Cl)cc2Cl)noc1C1(F)COC1 [Example 6, (2E)-3-(1-{[5-(3-Fluorooxetan-3-yl)-3-(2,4,6-trichlorophenyl)-1,2-oxazol-4-yl]carbonyl}-1H-indol-4-yl)prop-2-enoic acid] | 459 | 151
CC(C)(O)c1onc(-c2c(Cl)cccc2Cl)c1C(=O)n1ccc2c(/C=C/C(=O)O)cccc21 [Example 7, (2E)-3-(1-{[3-(2,6-Dichlorophenyl)-5-(2-hydroxypropan-2-yl)-1,2-oxazol-4-yl]carbonyl}-1H-indol-4-yl)prop-2-enoic acid] | 787 | 152
CC1(c2onc(-c3c(Cl)cc(Cl)cc3Cl)c2C(=O)n2ccc3c(/C=C/C(=O)O)ccnc32)COC1 [Example 9, (2E)-3-(1-{[5-(3-Methyloxetan-3-yl)-3-(2,4,6-trichlorophenyl)-1,2-oxazol-4-yl]carbonyl}-1H-pyrrolo[2,3-b]pyridin-4-yl]prop-2-enoic acid] | 1270 | 107
COC1(c2onc(-c3c(F)cc(Cl)cc3Cl)c2C(=O)n2cc(C)c3c(/C=C/C(=O)O)cccc32)CCC1 [Example 14, (2E)-3-(1-{[3-(2,4-Dichloro-6-fluorophenyl)-5-(1-methoxycyclobutyl)-1,2-oxazol-4-yl]carbonyl}-3-methyl-1H-indol-4-yl]prop-2-enoic acid] | 32 | 110
COC1(c2onc(-c3c(F)cc(Cl)cc3Cl)c2C(=O)n2cc3c4c(cccc42)/C(=C/C(=O)O)CC3)CCC1 [Example 15, (2E)-[1-{[3-(2,4-Dichloro-6-fluorophenyl)-5-(1-methoxycyclobutyl)-1,2-oxazol-4-yl]carbonyl}-3,4-dihydrobenzo[cd]indol-5(1H)-ylidene]ethanoic acid] | 37 | 106
Cc1cn(C(=O)c2c(-c3ccc(Cl)c(F)c3Cl)noc2C(C)(C)F)c2cccc(/C=C/C(=O)O)c12 [Example 17] | 242 | 201
CC(C)(F)c1onc(-c2ccc(Cl)c(F)c2Cl)c1C(=O)n1cc2c3c(cccc31)/C(=C/C(=O)O)CC2 [Example 20, (2E)-[1-{[3-(2,4-Dichloro-3-fluorophenyl)-5-(2-fluoropropan-2-yl)-1,2-oxazol-4-yl]carbonyl}-3,4-dihydrobenzo[cd]indol-5(1H)-ylidene]ethanoic acid] | 435 | 267
CC(C)c1onc(-c2c(Cl)cccc2Cl)c1C(=O)n1ccc2c(/C=C/C(=O)O)cccc21 [Example 23, (2E)-3-(1-{[3-(2,6-Dichlorophenyl)-5-(propan-2-yl)-1,2-oxazol-4-yl]carbonyl}-1H-indol-4-yl)prop-2-enoic acid] | 709 | 75
CC(C)(C)c1onc(-c2c(Cl)cccc2Cl)c1C(=O)n1ccc2c(/C=C/C(=O)O)cccc21 [Example 24, (2E)-3-(1-{[5-(tert-Butyl)-3-(2,6-dichlorophenyl)-1,2-oxazol-4-yl]carbonyl}-1H-indol-4-yl)prop-2-enoic acid] | 255 | 182
NC[C@H]1CCN(c2onc(-c3c(Cl)cccc3Cl)c2C(=O)n2ccc3c(/C=C/C(=O)O)cccc32)C1 [Example 139, (2E)-3-[1-({5-[(3R)-3-(Aminomethyl)pyrrolidin-1-yl]-3-(2,6-dichlorophenyl)-1,2-oxazol-4-yl}carbonyl)-1H-indol-4-yl]prop-2-enoic acid] | 339 | –
NC[C@@H]1CCN(c2onc(-c3c(Cl)cccc3Cl)c2C(=O)n2ccc3c(/C=C/C(=O)O)cccc32)C1 [Example 140] | – | 1040
